One series concerns the target α-glucosidase. Nature of the series: In vitro α-glucosidase inhibitory assay (PNP-G substrate). The class given is biochemical. The note with it: for IC50: three independent experiments, acarbose positive control, read-out: IC50 Values (µM ± SD) α-Glucosidase; for SI (selectivity index): SI = IC50(α-glucosidase)/IC50(α-amylase). As for the experimental part:
(§1) The IC50 values (μM) represented in Table 3 were calculated from the log dose-inhibition curves and are expressed as means ± standard deviations (SD) of three independent experiments. […] Inhibitors of α-glucosidase with mild inhibitory activity against α-amylase, on the other hand, constitute one of the major therapeutic strategies for the treatment of T2DM.
All the tests and analyses were performed in triplicates following a literature method described in our previous study. The stock solutions of the test compounds (200 µM) were prepared in DMSO, followed by dilution with a 100 mM phosphate buffer to obtain the concentrations of 100 µM. […] The enzyme solution (0.48 u/mL α-glucosidase, 17 µL); phosphate buffer (100 mM, pH 6.8; 50 µL); and test sample in DMSO (17 µL) were incubated at 37 °C for 10 min. After pre-incubation, 17 µL of 2 mM p-nitrophenyl-α-d-glucopyranoside (PNP-G) was added to each of the wells containing reaction mixtures to initiate the reaction. The absorbance was measured at 405 nm using a Bio-Rad microplate reader. The IC50 concentration was calculated using the AAT Bioquest online calculator.

In the next series the target is α-amylase. Nature of the series: In vitro α-amylase inhibitory assay (CNP-G3 substrate). The class given is biochemical. The note with it: three independent experiments; acarbose positive control; read-out: IC50 Values (µM ± SD) α-Amylase. The procedure:
as §1
The α-amylase inhibitory assay was performed in 96-well microplates using a final volume of 200 μL, following a procedure described in the literature study. The enzyme assay was performed with a phosphate buffer ([…]) containing 0.02% NaN3 and adjusted to pH 6.0 with 2.0 M phosphoric acid. […] The enzyme solution (2.0 u/mL α-amylase, 5 µL); phosphate buffer ([…], pH 6.0; 175 µL); and 10 µL test sample were incubated at 37 °C for 10 min. After pre-incubation, 10 µL of 10 mM of 2-chloro-4-nitrophenyl-α-D-maltotrioside (CNP-G3) was added to each of the wells containing reaction mixtures to initiate the reaction. The absorbance was measured at 405 nm using a Bio-Rad microplate reader. The IC50 values were calculated using the AAT Bioquest online calculator.

On to `Oc1ccc(Br)cc1C1=Nc2ccccc2SC(c2ccccc2)C1` (centres unmarked) [Compound 2a, 4-Bromo-2-((E)-2,3-dihydro-2-phenylbenzo[b][1,5]thiazepine-4-yl)phenol], for which the melting point lay in the range of 128 to 137 °C. Besides, the IC50 at α-glucosidase is 6.7 ± 0.15 µM. In addition, on α-amylase, the IC50 worked out at 20.87 ± 0.08 µM.

For `Oc1ccc(Br)cc1C1=Nc2ccccc2SC(c2ccc(F)cc2)C1` (centres unmarked) [Compound 2b, 4-Bromo-2-((E)-2,3-dihydro-2-(4-fluorophenyl)benzo[b][1,5]thiazepine-4-yl)phenol], the melting point fell in the range of 128 to 134 °C. For the same compound, in the series with α-glucosidase, the “SI (selectivity index)” value was determined as 1.09 and the IC50 was determined as 17.2 ± 0.07 µM. In addition, the IC50 on α-amylase is 15.85 ± 0.05 µM.

For the compound `Oc1ccc(Br)cc1C1=Nc2ccccc2SC(c2ccc(Cl)cc2)C1` (centres unmarked) [Compound 2c, 4-Bromo-2-((E)-2,3-dihydro-2-(4-chlorophenyl)benzo[b][1,5]thiazepine-4-yl)phenol], the melting point lay within 167 to 172 °C. In the series with α-glucosidase, the “SI (selectivity index)” value amounted to 0.12 and the IC50 came out at 2.69 ± 0.27 µM. Further, at α-amylase, the IC50 amounted to 22.86 ± 0.04 µM.

For `COc1cccc(C2CC(c3cc(Br)ccc3O)=Nc3ccccc3S2)c1` (centres unmarked) [Compound 2d, 4-Bromo-2-((E)-2,3-dihydro-2-(3-methoxyphenyl)benzo[b][1,5]thiazepine-4-yl)phenol], the melting point lay in the range of 161 to 167 °C. In addition, in the series on α-glucosidase, the “SI (selectivity index)” value worked out at 0.29 and the IC50 was 13.2 ± 1 µM. In addition, the IC50 at α-amylase amounted to 46.16 ± 0.31 µM.

Take `COc1ccc(C2CC(c3cc(Br)ccc3O)=Nc3ccccc3S2)cc1` (centres unmarked) [Compound 2e, 4-Bromo-2-((E)-2,3-dihydro-2-(4-methoxyphenyl)benzo[b][1,5]thiazepine-4-yl)phenol]: the melting point was in the range of 131 to 136 °C. In addition, in the series with α-glucosidase, the “SI (selectivity index)” value was 0.29 and the IC50 stood at 15.87 ± 0.13 µM. Moreover, the IC50 on α-amylase amounted to 55.14 ± 0.19 µM.

Consider `CC(C)c1ccc(C2CC(c3cc(Br)ccc3O)=Nc3ccccc3S2)cc1` (centres unmarked) [Compound 2f, 4-Bromo-2-((E)-2,3-dihydro-2-(4-isopropylphenyl)benzo[b][1,5]thiazepine-4-yl)phenol], for which the melting point was 126 to 131 °C. Moreover, in the series with α-glucosidase, the “SI (selectivity index)” value was determined as 0.67 and the IC50 was found to be 6.54 ± 0.11 µM. The IC50 at α-amylase came to 9.71 ± 0.5 µM.

A word on the IC50: it is the concentration that gives 50% inhibition. The melting point is the temperature, or range, at which the solid turns liquid.

The values above are taken from publication PMC9607343, “Synthesis, Conformational Analysis and Evaluation of the 2-aryl-4-(4-bromo-2-hydroxyphenyl)benzo[1,5]thiazepines as Potential α-Glucosidase and/or α-Amylase Inhibitors” (Molecules, 2022).
